# Measured values taken from the NIST ThermoML archive (doi:10.1021/acs.jced.7b00840).
# Numbers after ± are expanded uncertainties.
# Conditions: Crystal; visual observation
row,Triple point temperature [K],SMILES
1,332.35 ± 0.87,Nc1ccc(I)cc1 [4-iodoaniline]
2,325.7 ± 1.2,Nc1ccccc1I [2-iodoaniline]
